Legend:
Type in all cases: in vivo, mouse
[1] = tested on: mice with NTG-induced migraine; assay: von Frey PWT, NTG-induced migraine model, oral or intraperitoneal compounds; settings: oral 30 min after NTG: PS 50, sulindac 33, PN 65, naproxen 35 mg/kg; 30 min after administration
Method: Phosphonaproxen (Formula VIII), and its parent compound, naproxen, were administered orally to each mouse group. All compounds were administered at equimolar doses. In particular, phosponaproxen was administered at 65 mg/kg, and naproxen was administered at 35 mg/kg, 30 minutes after NTG administration. The response of mechanical allodynia was tested 30 minutes after administration.

[2] = tested on: mice with chronic constriction injury (PTPN); assay: von Frey PWT, CCI model of PTPN, orally administered compounds; settings: oral once a day: PS 50, PSA 50, sulindac 33 mg/kg
Method: Phospho-ibuprofen (PI) (Formula III), phospho-ibuprofen-amide (PIA) (Formula XI), ibuprofen and vehicle control were all administered orally, three times a day for 14 days. Their doses were as follows: PI 80 mg/kg, PIA 80 mg/kg, ibuprofen 40 mg/kg (all three are equimolar). […] Group 1: vehicle (n=5-8) • 2. Group 2: ibuprofen (n=5-8) • 3. Group 3: phospho-ibuprofen (PI) (n=5-8) • 4. Group 4: phospho-ibuprofen-amide (PIA) (n=5-8)

[3] = tested on: mice with NTG-induced chronic migraine; assay: von Frey PWT, NTG-induced chronic migraine model
From the text: The NTG-induced chronic migraine model was used as described previously.

[4] = tested on: mice with chronic constriction injury of the left sciatic nerve (PTPN); assay: von Frey PWT, chronic constriction injury (CCI) model of PTPN, topical compounds; settings: PS 5% gel, sulindac 0.7% gel on left paw 3x/day 14 days; pregabalin (10 mg/ml) oral gavage once 1 h before; day 14
Method: The PWT test was performed following ligation, but prior to treatment to determine baseline values. The PWT was then further measured on day 14.

[5] = tested on: mice with paclitaxel-induced neuropathic pain (CIPN); assay: von Frey paw withdrawal threshold (mechanical allodynia), paclitaxel-induced CIPN / central sensitization, treatment of established pain, topical test compounds; settings: paclitaxel mice; PS hydrogel 5%, sulindac 0.7% topical hind paws 3x/day from day 0; lidocaine 5% cream once 30 min before; pregabalin 10 mg/kg oral once 1 h before; day 14
Method: Paw withdrawn, licking or shaking were considered positive responses.
(§1) The first doses were administered 5 days after the last administration of paclitaxel (i.e., at day 0).
The PWT test was performed prior to the administration of paclitaxel (day −8) to establish the threshold in mice without neuropathic pain associated with CIPN (the value shown is an average of the PWT in all groups at day −8).
Pain associated with CIPN was established in line with the experiments disclosed herein. Mice were treated with naproxen 2.4% (equimolar to PN 5%), aspirin 1.7% (equimolar to PA2 5%); or ibuprofen 2.5% (equimolar to PI 5%) or vehicle applied topically to both hind paws 3×/day for 14 days.
CIPN was induced in mice with chemotherapeutic agents using established protocols (Carozzi et al, 2010; Currie et al, 2019; Eldridge et al, 2020).
The first doses were administered 1 day after the last administration of paclitaxel (i.e., at day 0).
as §1
The PWT test was performed on day 21, at the end of the experiment, but was also additionally determined on day 14 for LXIX.

[6] = tested on: BALB/c mice infected with HSV-1 KOS strain (PHN); settings: second experiment; sulindac 5% gel on both hind paws 3x/day for three days
Method: PHN was induced in mice by infecting them with the HSV-1 KOS strain virus and following established protocols (Ou et al, Front Immunol, 14, 1026269, 2023; Takasaki et al, Anesthesiology, 96 (5), 1168-74, 2002).
; Reckitt Benckiser). Three days later, HSV-1 (10^6 PFUs in 20 μl PBS) was inoculated on the shin of the right hind paw (5×5 mm) after scarification with sandpaper. The virus was applied directly to the scarified area. The contralateral hind paw was without inoculation. Mock infection was performed using the same virus inactivated by heating at 60° C. for 1 h.
In a second experiment, the effect of the parent compound, sulindac, was tested in the same mouse model. Five days post-inoculation, sulindac (as a 5% gel), or vehicle control were administered topically onto both hind paws of mice three times a day for three days.
PHN was induced in mice by infecting them with the HSV-1 KOS strain virus in line with the previous Examples.
Five days post-inoculation, NO-sulindac (Formula XLIV) (as a 5% gel), or vehicle control were administered topically onto both hind paws of mice three times a day for three days.

[7] = tested on: mice with paclitaxel-induced CIPN; assay: thermal allodynia (paw withdrawal latency, radiant heat), paclitaxel CIPN model; settings: oral PS 50 mg/kg, sulindac 33 mg/kg 3x/day, day 16 of treatment
Method: Group 3: paclitaxel pluse sulindac (n=8)
Thermal allodynia was also determined for the mice study groups below (with 8 mice per group): • 1. Group 1: naïve mice (i.e. no paclitaxel) • 2. Group 2: paclitaxel only • 3. Group 3: paclitaxel plus vehicle • 4. Group 4: paclitaxel plus NO-sulindace • 5. Group 5: paclitaxel plus thiol-sulindac

## CC1=C(CC(=O)O)c2cc(F)ccc2/C1=C\c1ccc([S+](C)[O-])cc1 (stereo not drawn) [sulindac, reference compound]
[1]
  PWT, g Mean ± SEM: 0.60 ± 0.04 g
[2]; Day 6
  PWT, g Mean ± SEM: Day 6 = 0.6 ± 0.03 g
[2]; Day 14
  PWT, g Mean ± SEM: Day 14 = 0.6 ± 0.0 g
[3]; NTG 0.4 mg sublingual every two days x5, oral once a day 11 days: PS 50, sulindac 33 mg/kg, 30 min after administration
  PWT, g Mean ± SEM, Day 11: 0.43 ± 0.03 g
[3]; group baseline prior to NTG administration
  PWT, g Mean ± SEM, Baseline: 1.80 ± 0.12 g
[4]
  PWT, g Mean ± SEM: 0.63 ± 0.07 g
[5]
  PWT, g Mean ± SEM: 0.62 ± 0.05 g
[6]
  PWT, g Mean ± SEM, Post-inoculation and treatment: 0.56 ± 0.06 g
[7]
  PWL, sec Mean ± SEM: 7.87 ± 0.7 s

From US20260102413A1, “TREATING PAIN ASSOCIATED WITH CENTRAL SENSITIZATION” (Medicon Pharmaceuticals, Inc., priority 2022, published 2026)
